Measured values taken from patent publication US20120010229A1, “THERAPEUTIC REGIMENS FOR HEDGEHOG-ASSOCIATED CANCERS” (priority 2010, published 2012).

Experiments:
[1] = target: Pgp (Homo sapiens, UniProt P08183); test: Pgp substrate status; format: in vitro ADME
[2] = tested on: Pgp/ABCB1 and BCRP; conditions: mouse, not told
[3] = tested on: Gli1; test: Gli1 mRNA by RT-PCR in Ptc^C/C tumors; format: in vivo, mouse; conditions: for suppression of Gli1 levels vs vehicle: daily 20 mg/kg/dose; for reduction in Gli1 mRNA levels: single dose
Procedure: Pharmacodynamic activity of IPI-926 in Ptc^C/C tumors was confirmed by analysis of Gli1 mRNA by RT-PCR. Mice were treated daily with 20 mg/kg/dose IPI-926 for 2 days, 2 weeks or 6 weeks and tumor tissue isolated and snap frozen 24 hours after the last dose. Total RNA was extracted using the Qiagen RNeasy Plus Kit and converted to cDNA using the Taqman Reverse Transcription kit (ABI). Quantitative Real Time PCR was set up using Taqman Master Mix and run on the Applied Biosystems 7300HT Real-Time PCR (384-well qPCR) System. Taqman primers for mouse Gli1 and Gapdh controls were used (ABI). Data was analyzed using SDS2.3 software (ABI). All conditions were run in triplicate and normalized to mouse Gapdh controls. Expression of IPI-926 treated (n=3 per time point) samples were normalized to vehicle control (n=3 per time point) samples.
In initial studies in the Ptc^C/C mice intracranial pressures were sufficiently high in some mice that brainstem herniation into the spinal canal and subsequent death occurred by tipping the head back for gavage feeding. Pharmacodynamic studies were conducted with intraperitoneal (IP) drug injection as well as oral gavage to see whether the IP route offered a safe and effective alternative to gavage drug administration. Both oral and IP routes induced approximately 90% reduction in Gli1 mRNA levels (FIG. 14), so IP administration was used for all subsequent studies.

[4] = tested on: human cell lines derived from patients with cancer; conditions: pancreatic cancer, medulloblastoma, lung cancer, multiple myeloma, leukemia, lymphoma lines; cited from earlier work
[5] = tested on: Ptc^C/C medulloblastoma; test: Ptc^C/C mouse medulloblastoma model: survival, symptoms, MRI tumor volume; format: in vivo
From the text: Transgenic mice were maintained in accordance with the NIH Guide for the Care and Use of Experimental Animals with approval from our Institutional Animal Care and Use Committee. Conditional Patched1 null mice (Ptc^C/C) were generated on a mixed background by breeding mice homozygous for the floxed Ptch1 allele (Adolphe et al., (2006) Cancer Res 66: 2081-2088) to Math1-Cre mice, as previously described (Yang et al. (2008) Cancer Cell 14: 135-145). Mice were genotyped by PCR using genomic DNA using the following primers:
Animal experiments were performed in accordance with the NIH Guide for the Care and Use of Experimental Animals with approval from our Institutional Animal Care and Use Committee. 100% penetrance of medulloblastoma in the Ptc^C/C mice was observed, with all mice displaying symptoms of tumor formation by the time of weaning. Ptc^C/C mice (age ranging from 21-36 days) were randomized to receive either IPI-926 (Infinity Pharmaceuticals) or vehicle control (5% (2-Hydroxylpropyl)-B-Cyclodextrin (HPBCD), Sigma Aldrich) administered via intraperitoneal (IP) injection.
Mice were euthanized using CO2 inhalation, brains were removed and tissue snap frozen for RNA studies or fixed in 10% buffered formalin and processed for histopathological examination. Formalin-fixed tissues were paraffin embedded, cut into 4 um sections and stained with Haematoxylin and Eosin using standard methods.
Magnetic resonance imaging (MRI) was performed using a 3 Tesla MRI system (Philips Achieva, Philips Healthcare, Andover, Mass.) and a custom mouse head coil. Serial MR scans were performed using a 35 minute coronal high-resolution T2-weighted sequence (TE=110 ms, TR=2000 ms, bandwidth=212, 2 NEX or signal averages, a matrix of 256×256 pixels in-plane, slice thickness of 320 microns and an interslice gap of 160 microns). Mice were scanned under halothane anesthesia at enrollment, after 3 weeks of treatment, and after 6 weeks of treatment. Ctx:Cy5.5 bioconjugate (Tumor Paint) was given by intravenous tail vein injection one day prior to animal sacrifice. Biophotonic images were obtained using the Xenogen Spectrum imaging system (Caliper Life Sciences) as previously described (Veiseh et al. (2007) Cancer 67: 6882-6888).
DICOM images were exported from the MRI scanner to a web-based repository (BioScribe) and then imported into ITK-SNAP (version 2.0, available on the world wide web at itksnap.org). Images were first windowed to accentuate tumor/brain contrast, easily observed on the T2-weighted scans. […] Effacement of the fourth ventricle was accompanied by lateral and third ventriculomegaly and transependymal CSF flow. Tumor and enlarged cerebellum was seen to herniate into the internal auditory canals (IAC) bilaterally. After each imaging time-point, using the manual tracing tool, tumor tissue (including the IAC components) was painted in three planes excluding frank cerebrospinal fluid or cystic regions. The resultant segmentation file was saved for later use. Three-dimensional surface-rendered reconstructions were then performed and saved in two standard projections for each tumor analyzed, with the aim of delineating a consistent view of the tumor for comparison between pre- and post-treatment scans and between treatment groups. Automated pixel counting multiplied by image pixel dimensions yielded volumetric measures for each segmentation analysis dataset. In addition to quantitative analysis, pre and post-treatment scans were compared for evaluation of secondary changes such as hydrocephalus, prominent extra-axial spaces, cystic change/necrosis in treated tumor and any evidence of hemorrhage.
Studies were designed to detect differences in event rates that approximately corresponded to a doubling of median improvement in survival of (3 weeks) with 90% power based on simulated power experiments. […]

[6] = in vivo, cited from earlier work

Chain of Pgp (P08183 whole entry): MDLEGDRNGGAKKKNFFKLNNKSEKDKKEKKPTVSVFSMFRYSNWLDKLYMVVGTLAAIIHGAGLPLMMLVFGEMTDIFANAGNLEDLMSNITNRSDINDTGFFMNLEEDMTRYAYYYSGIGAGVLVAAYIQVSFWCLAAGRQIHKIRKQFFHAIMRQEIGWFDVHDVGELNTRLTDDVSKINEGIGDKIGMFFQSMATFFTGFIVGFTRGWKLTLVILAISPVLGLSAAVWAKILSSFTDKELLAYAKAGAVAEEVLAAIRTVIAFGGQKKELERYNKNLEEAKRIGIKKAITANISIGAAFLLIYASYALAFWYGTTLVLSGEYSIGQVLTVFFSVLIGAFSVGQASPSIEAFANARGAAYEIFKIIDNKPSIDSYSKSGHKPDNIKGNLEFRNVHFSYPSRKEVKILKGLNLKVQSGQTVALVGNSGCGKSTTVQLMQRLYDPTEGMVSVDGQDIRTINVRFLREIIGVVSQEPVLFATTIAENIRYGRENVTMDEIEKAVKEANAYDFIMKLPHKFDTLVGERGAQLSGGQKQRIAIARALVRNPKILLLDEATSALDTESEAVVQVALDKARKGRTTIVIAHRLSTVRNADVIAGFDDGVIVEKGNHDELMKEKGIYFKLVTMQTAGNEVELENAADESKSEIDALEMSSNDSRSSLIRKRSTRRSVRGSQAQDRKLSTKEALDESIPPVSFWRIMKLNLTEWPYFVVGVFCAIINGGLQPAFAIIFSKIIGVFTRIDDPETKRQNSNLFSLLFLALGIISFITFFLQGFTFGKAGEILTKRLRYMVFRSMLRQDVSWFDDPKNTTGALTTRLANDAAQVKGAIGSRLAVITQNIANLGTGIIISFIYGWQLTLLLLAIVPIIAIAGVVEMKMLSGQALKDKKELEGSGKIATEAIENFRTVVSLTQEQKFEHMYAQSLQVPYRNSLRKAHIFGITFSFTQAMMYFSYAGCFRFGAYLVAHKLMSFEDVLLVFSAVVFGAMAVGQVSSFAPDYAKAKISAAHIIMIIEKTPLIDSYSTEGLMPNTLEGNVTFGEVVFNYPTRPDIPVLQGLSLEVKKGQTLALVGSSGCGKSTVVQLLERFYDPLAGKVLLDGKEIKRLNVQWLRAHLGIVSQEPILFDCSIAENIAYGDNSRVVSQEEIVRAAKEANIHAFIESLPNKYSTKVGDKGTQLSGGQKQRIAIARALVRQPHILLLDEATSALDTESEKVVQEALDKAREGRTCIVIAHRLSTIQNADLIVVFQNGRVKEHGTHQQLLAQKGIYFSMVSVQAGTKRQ

CC1=C2C[C@H]3[C@@H](CC[C@@H]4C[C@H](NS(C)(=O)=O)CC[C@@]43C)[C@@H]2CC[C@@]2(C1)O[C@@H]1C[C@H](C)CN[C@H]1[C@H]2C [IPI-926]
Pgp substrate [1]: Pgp substrate
Pgp protein expression (IHC) [2]: focal increases in Pgp
expression level of BCRP (Western blot) [2]: not significantly increased
expression level of Pgp (Western blot) [2]: not significantly increased
suppression of Gli1 levels vs vehicle ([3]; after 2 weeks of therapy): 60%
suppression of Gli1 levels vs vehicle ([3]; after 6 weeks of therapy): 30%
suppression of Gli1 levels vs vehicle ([3]; after 2 days of therapy): 90%
reduction in Gli1 mRNA levels ([3]; intraperitoneal injection): approximately 90%
reduction in Gli1 mRNA levels ([3]; oral gavage): approximately 90%
in vitro growth of human cancer cell lines [4]: inhibit in vitro growth
fraction of mice with rebound in tumor growth by 6 weeks (MRI) ([5]; 20 mg/kg/day, after maximal size reduction at 3 weeks): approximately half
tumor volume by MRI ([5]; after three weeks of daily administration): substantial tumor regression
average time to death after stopping treatment ([5]; drug withdrawn after six weeks of daily 20 mg/kg): ≤ 10 days
clinical symptoms of medulloblastoma ([5]; pilot study, daily IP 20 mg/kg/dose, 19 days of treatment): full resolution of clinical symptoms
mice still alive six weeks after starting twice-a-week therapy ([5]; six weeks daily then maintenance 20 mg/kg twice per week): 77%
survival ([5]; six weeks of daily IPI-926 20 mg/kg IP, vehicle 0%): 100%
oral bioavailability ([6]; po): orally bioavailable
duration of action [6]: long duration of action
plasma half-life [6]: long plasma half-life
